From ChEMBL document CHEMBL3596150, “Acylated glucosylflavones as α-glucosidase inhibitors from Tinospora crispa leaf” (Bioorg Med Chem, 2015)
The source made the active and inactive calls. The calls are words filed in the database; no cut-off is given here.

Columns and labels:
[1] = Retention time of the compound by HPLC-SPE-NMR analysis; format: physicochemical
[2] = Inhibition of Bacillus stearothermophilus alpha-glucosidase; set-up: species or system Geobacillus stearothermophilus
[3] = tested on: Geobacillus stearothermophilus; assay: Inhibition of Bacillus stearothermophilus alpha-glucosidase at 10 ug/ml
[4] = Cytotoxicity against human WS1 cells; format: cell-based

SMILES | Retention_time [1] | IC50 [2] | inhibition [3] | IC50 [4]
O=C(/C=C/c1ccc(O)cc1)O[C@@H]1[C@@H](O)[C@H](O)[C@@H](CO)O[C@H]1c1c(O)cc2oc(-c3ccc(O)cc3)cc(=O)c2c1O | 36.5 min | 4.3 µM | – | –
O=C(/C=C/c1ccc(O)cc1)O[C@@H]1[C@@H](O)[C@H](O)[C@@H](CO)O[C@H]1c1c(O)cc2oc(-c3ccc(O)c(O)c3)cc(=O)c2c1O | 29.9 min | 35.7 µM | – | –
COc1cc(/C=C/C(=O)OC[C@H]2O[C@@H](Oc3cc(O)c4c(=O)cc(-c5ccc(O)cc5)oc4c3)[C@H](O)[C@@H](O)[C@@H]2O)ccc1O | 41.8 min | 8.8 µM | – | –
O=c1cc(-c2ccc(O)cc2)oc2cc(O)c([C@@H]3O[C@H](CO)[C@@H](O)[C@H](O)[C@H]3O)c(O)c12 [ISOVITEXIN] | 19.5 min | 61.2 µM | – | –
COc1cc(-c2cc(=O)c3c(O)cc(O)cc3o2)ccc1O [CHRYSOERIOL] | 51.4 min | – | – | –
O=C(/C=C\c1ccccc1)OC[C@H]1O[C@@H](Oc2cc(O)c3c(=O)cc(-c4ccc(O)cc4)oc3c2)[C@H](O)[C@@H](O)[C@@H]1O | 57.4 min | 11.3 µM | – | –
O=c1cc(-c2ccc(O[C@@H]3O[C@H](CO)[C@@H](O)[C@H](O)[C@H]3O)c(O)c2)oc2cc(O)cc(O)c12 | – | – | inactive | –
O=c1cc(-c2ccc(O)cc2)oc2cc(O[C@@H]3O[C@H](CO)[C@@H](O)[C@H](O)[C@H]3O)cc(O)c12 [APIGETRIN] | 25.7 min | – | inactive | –
O=c1cc(-c2ccc(O)c(O)c2)oc2c([C@@H]3O[C@H](CO)[C@@H](O)[C@H](O)[C@H]3O)c(O)cc(O)c12 [ORIENTIN] | 16.6 min | – | – | –
COc1cc(/C=C/C(=O)O[C@@H]2[C@@H](O)[C@H](O)[C@@H](CO)O[C@H]2c2c(O)cc3oc(-c4ccc(O)c(O)c4)cc(=O)c3c2O)cc(OC)c1O | 29.1 min | – | – | –
O=c1cc(-c2ccc(O)c(O)c2)oc2cc(O[C@@H]3O[C@H](CO)[C@@H](O)[C@H](O)[C@H]3O)cc(O)c12 [GALUTEOLIN] | 20.7 min | – | inactive | –
O=c1cc(-c2ccc(O)c(O)c2)oc2cc(O)c([C@@H]3O[C@H](CO)[C@@H](O)[C@H](O)[C@H]3O)c(O)c12 [ISOORIENTIN] | 14.9 min | 1530 µM | – | –
O=c1cc(-c2ccc(O)cc2)oc2cc(O)cc(O)c12 [APIGENIN] | 50.2 min | 34.6 µM | – | –
O=c1cc(-c2ccc(O)c(O)c2)oc2cc(O)cc(O)c12 [LUTEOLIN] | – | 86.1 µM | – | –
O=C(/C=C/c1ccc(O)cc1)OC[C@H]1O[C@@H](Oc2cc(O)c3c(=O)cc(-c4ccc(O)cc4)oc3c2)[C@H](O)[C@@H](O)[C@@H]1O | 43.4 min | 14.6 µM | – | 42 µM
O=C(/C=C/c1ccccc1)OC[C@H]1O[C@@H](Oc2cc(O)c3c(=O)cc(-c4ccc(O)c(O)c4)oc3c2)[C@H](O)[C@@H](O)[C@@H]1O | 51.4 min | – | – | –
O=C(/C=C\c1ccc(O)cc1)OC[C@H]1O[C@@H](Oc2cc(O)c3c(=O)cc(-c4ccc(O)cc4)oc3c2)[C@H](O)[C@@H](O)[C@@H]1O | 44.9 min | 10.1 µM | – | –
C[C@H]1O[C@H](O[C@H]2[C@H](O)[C@@H](O)[C@@H](O[C@H]3[C@H](O)[C@@H](O)C(O)O[C@@H]3CO)O[C@@H]2CO)[C@H](O)[C@@H](O)[C@@H]1N[C@H]1C=C(CO)[C@@H](O)[C@H](O)[C@H]1O (stereo not given in full) [ACARBOSE] | – | 0.033 µM | – | –
